Data: paper PMC10487961, “Antiplatelet Effects of Selected Xanthine-Based Adenosine A2A and A2B Receptor Antagonists Determined in Rat Blood” (International Journal of Molecular Sciences, 2023)
Read-outs that look alike come from different tables or passages of the source.

Assays:
human recombinant PDE2A [1] = molecular target: T1, human recombinant PDE2A (Homo sapiens, UniProt O00408); assay: PDE-Glo activity inhibition test, PDE2A; format: biochemical; conditions: cGMP substrate, read-out: IC50 (CV%) PDE2A
T1 construct: purchased SignalChem
T1 sequence (O00408 whole entry): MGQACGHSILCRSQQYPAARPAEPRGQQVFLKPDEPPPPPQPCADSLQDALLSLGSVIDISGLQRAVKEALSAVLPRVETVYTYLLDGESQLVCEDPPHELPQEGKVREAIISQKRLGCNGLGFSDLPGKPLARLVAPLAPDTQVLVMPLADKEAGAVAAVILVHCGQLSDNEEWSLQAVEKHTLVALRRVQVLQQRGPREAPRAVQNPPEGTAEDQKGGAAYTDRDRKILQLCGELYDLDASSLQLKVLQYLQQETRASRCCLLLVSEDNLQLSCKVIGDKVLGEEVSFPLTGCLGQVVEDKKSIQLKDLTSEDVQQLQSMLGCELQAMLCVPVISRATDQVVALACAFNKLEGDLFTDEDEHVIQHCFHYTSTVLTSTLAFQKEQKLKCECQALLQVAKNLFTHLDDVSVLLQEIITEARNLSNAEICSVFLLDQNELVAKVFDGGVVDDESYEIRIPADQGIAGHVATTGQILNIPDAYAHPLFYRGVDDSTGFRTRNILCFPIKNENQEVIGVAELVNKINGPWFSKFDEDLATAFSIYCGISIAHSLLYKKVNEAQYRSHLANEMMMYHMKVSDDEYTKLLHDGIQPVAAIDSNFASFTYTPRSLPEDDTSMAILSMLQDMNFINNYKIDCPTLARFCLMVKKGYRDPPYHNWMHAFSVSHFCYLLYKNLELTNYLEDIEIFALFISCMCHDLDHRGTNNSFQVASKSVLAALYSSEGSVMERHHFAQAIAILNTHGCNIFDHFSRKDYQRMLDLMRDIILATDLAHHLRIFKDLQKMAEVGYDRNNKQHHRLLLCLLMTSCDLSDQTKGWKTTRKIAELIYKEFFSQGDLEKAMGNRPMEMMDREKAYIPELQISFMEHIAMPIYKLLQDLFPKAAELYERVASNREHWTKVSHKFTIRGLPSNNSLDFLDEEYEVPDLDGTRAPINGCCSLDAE

[2] = system: platelet aggregation in whole rat blood induced with collagen; assay: In vitro whole rat blood aggregation induced with collagen (Multiplate impedance aggregometry); format: cell-based; conditions: for Reduction of collagen-induced platelet aggregation: 100 µM compound, whole rat blood, screening (Figure 1); for Reduction of collagen-induced platelet aggregation / Effect on collagen-induced platelet aggregation (in words): collagen 1.6 µg/mL; for IC50: Collagen [1.6 µg/mL], concentration inhibiting aggregation of whole rat blood in vitro by 50%; for Effect on collagen-induced platelet aggregation (in words): screened at 10 µM and 100 µM, whole rat blood (Figure 1)
Description: (§1) To evaluate antiplatelet activities of the test compounds, freshly isolated rat whole blood was incubated with compound or vehicle, and the aggregation responses were assessed with a whole blood aggregometer by measuring impedance changes. Platelet aggregation was induced with collagen. First, compounds were screened for anti-aggregation effects at concentration of 10 µM and 100 µM (Figure 1). […] In vitro aggregation tests were conducted using freshly collected whole rat blood with a Multiplate platelet function analyzer (Roche Diagnostic, Mannheim, Germany), the five-channel aggregometer based on measurements of electric impedance, according to previous procedures. Upon activation, platelets adhere and progressively aggregate on a duplicate metal sensor in the analyzer test cuvette. This leads to a change in resistance, which is proportional to the number of platelets adhering to the electrodes. Blood was drawn from the carotid of rats with hirudin blood tubes (S-Monovette, Hirudin, Sarstedt, Germany). Then, 300 μL of hirudin anticoagulated blood was mixed with 300 μL prewarmed isotonic saline solution containing the studied compound or vehicle (DMSO 0.1%) and preincubated for 3 min at 37 °C with continuous stirring. The agonists (collagen, ADP) were diluted using deionized water. Aggregation was induced by adding collagen (final concentration 1.6 µg/mL) or ADP (final concentration 6.5 µM). […] Activated platelet function was recorded for 6 min. Multiplate software v. V2.05 was used to analyze the area under the curve (AUC) of the clotting process for each measurement and calculate the mean values.

human recombinant PDE5A [3] = molecular target: T2, human recombinant PDE5A (Homo sapiens, UniProt O76074); assay: PDE-Glo activity inhibition test, PDE5A; format: biochemical; conditions: cGMP substrate, read-out: IC50 (CV%) PDE5A
T2 construct: purchased SignalChem

hA2AR = conditions: cited from earlier work
human recombinant PDE3A = molecular target: T3, human recombinant PDE3A (Homo sapiens, UniProt Q14432); assay: PDE-Glo activity inhibition test, PDE3A; format: biochemical; conditions: for IC50: human recombinant PDE3A, cAMP substrate, read-out: IC50 (CV%) PDE3A
T3 construct: purchased SignalChem
T3 sequence (Q14432 whole entry): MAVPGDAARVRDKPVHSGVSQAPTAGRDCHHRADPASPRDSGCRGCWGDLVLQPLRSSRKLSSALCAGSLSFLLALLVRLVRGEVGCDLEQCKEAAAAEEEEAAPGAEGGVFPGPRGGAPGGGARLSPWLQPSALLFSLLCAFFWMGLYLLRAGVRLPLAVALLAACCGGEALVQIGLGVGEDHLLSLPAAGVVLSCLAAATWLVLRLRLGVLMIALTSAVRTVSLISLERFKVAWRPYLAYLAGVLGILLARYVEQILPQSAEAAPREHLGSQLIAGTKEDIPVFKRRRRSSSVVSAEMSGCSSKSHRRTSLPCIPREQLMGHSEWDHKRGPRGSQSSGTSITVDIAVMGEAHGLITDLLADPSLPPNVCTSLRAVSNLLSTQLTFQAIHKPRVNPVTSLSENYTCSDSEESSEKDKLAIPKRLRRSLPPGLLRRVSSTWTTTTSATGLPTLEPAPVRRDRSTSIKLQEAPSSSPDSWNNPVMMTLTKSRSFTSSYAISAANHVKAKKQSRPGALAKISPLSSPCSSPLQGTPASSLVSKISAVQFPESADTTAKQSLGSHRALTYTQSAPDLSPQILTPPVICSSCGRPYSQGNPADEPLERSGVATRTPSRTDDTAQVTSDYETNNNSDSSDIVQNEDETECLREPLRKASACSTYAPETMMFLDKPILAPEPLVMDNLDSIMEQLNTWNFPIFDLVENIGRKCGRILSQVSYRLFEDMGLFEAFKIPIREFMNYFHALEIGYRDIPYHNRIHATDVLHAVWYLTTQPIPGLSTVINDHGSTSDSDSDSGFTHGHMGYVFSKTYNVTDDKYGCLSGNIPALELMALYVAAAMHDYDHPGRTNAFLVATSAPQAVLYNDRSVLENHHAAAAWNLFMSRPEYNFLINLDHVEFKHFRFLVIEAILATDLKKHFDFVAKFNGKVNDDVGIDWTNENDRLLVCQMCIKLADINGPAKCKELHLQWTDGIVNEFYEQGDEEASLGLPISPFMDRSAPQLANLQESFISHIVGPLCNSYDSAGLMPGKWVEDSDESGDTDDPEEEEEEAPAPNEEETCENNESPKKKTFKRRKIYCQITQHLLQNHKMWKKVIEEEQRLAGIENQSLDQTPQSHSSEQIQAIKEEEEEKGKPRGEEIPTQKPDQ

hA1R = conditions: human A1 receptor; read-out: Ki ± SEM hA1R vs. [3H]CCPA; cited from earlier work
hA3R = conditions: human A3 receptor; read-out: Ki ± SEM hA3R vs. [3H]PSB-11; cited from earlier work
hA2BR = conditions: human A2B receptor; read-out: Ki ± SEM hA2BR vs. [3H]PSB-603; cited from earlier work
[4] = system: platelet aggregation in whole rat blood induced by ADP; assay: In vitro whole rat blood aggregation induced with ADP (Multiplate impedance aggregometry); format: cell-based; conditions: ADP [6.5 μM], concentration inhibiting aggregation of whole rat blood in vitro by 50%
Description: as §1, with “In further experiments,” for “To evaluate antiplatelet activities of the test compounds, freshly isolated rat whole blood was incubated with compound or vehicle, and the aggregation responses were assessed with a whole blood aggregometer by measuring impedance changes. Platelet”, “ADP. In this model of aggregation, we tested the selected” for “collagen. First,”, “as well as IBMX as a positive control.” for “were screened for anti-aggregation effects at concentration of 10 µM and 100 µM (Figure 1).”

[5] = system: lipid peroxidation in rat brain homogenate; assay: In vitro lipid peroxidation (MDA/TBARS test)
Description: The lipid peroxidation was measured by the formation of thiobarbituric acid reactive substances (TBARS) in rat brain homogenate, which was made in 0.9% NaCl containing 10 mg tissue per mL [60]. Briefly, rat brain homogenates (1 mL) were incubated at 37 °C for 5 min with 10 µL of a test compound or vehicle. Lipid peroxidation was initiated with the addition of 50 µL of 0.5 mmol/L FeCl2 and 50 µL of 2 mmol/L ascorbic acid. After 30 min of incubation, the reaction was stopped by adding 0.1 mL of 0.2% butylhydroxytoluene. Thiobarbituric acid reagent was then added, and the mixture was heated for 15 min in a boiling water bath. The TBARS was extracted using n-butanol and measured at 532 nm. The amount of TBARS was quantified using a standard curve of malondialdehyde (1,1,3,3-tetraethoxypropane was used as standard).
The compound used to compare the results was carvedilol. Its activity was tested in the concentration range of 10–3000 μM (Figure 8). The reference was the maximum activity of carvedilol at the highest concentration (100%). Test compounds were assayed at concentrations of 100 and 1000 µM. The obtained results were then compared to the activity of the reference compound at identical concentrations (1000 µM).

human recombinant PDE2A [6] = molecular target: T1, human recombinant PDE2A; parameters: method as in PMID 31705904; conditions: cited from earlier work
human recombinant PDE5A [7] = molecular target: T2, human recombinant PDE5A; parameters: method as in PMID 31705904; conditions: cited from earlier work

Compound	IC50 (human recombinant PDE2A [1]) [µM]	IC50 (human recombinant PDE5A [3]) [µM]	Ki (hA2AR) [nM]	IC50 (human recombinant PDE3A) [nM]	Ki (hA1R) [nM]	Ki (hA3R) [nM]	Ki (hA2BR) [nM]	IC50 [4] [µM]	Effect on collagen-induced platelet aggregation (in words) [2]	also measured
CCCn1c(=O)[nH]c2nc(-c3ccc(S(=O)(=O)N4CCN(c5ccc(Cl)cc5)CC4)cc3)[nH]c2c1=O [PSB-603, 1-propyl-8-(4-((4-(4-chlorophenyl)piperazin-1-yl)sulfonyl)phenyl)-1H-purine-2,6(3H,7H)-dione]	50.1	39.7	> 1000	> 100000	> 1000	> 1000	0.553 ± 0.103	82.9 ± 17	–	Reduction of collagen-induced platelet aggregation [2]: 50.4%; Prevention of collagen-induced platelet aggregation ([2]; 100 µM, highest tested concentration, concentration series (Figure 2)): 54.12%; IC50 [2]: 98.6 ± 27 µM; IC50 ([2]; Rattus norvegicus, Platelet): ~100 µM; Effect on platelet activity at lower concentrations (in words) ([2]; concentrations below 100 µM, collagen 1.6 µg/mL (Figure 2)): did not markedly affect platelet activity; Effect against PDE3A activity (in words) (human recombinant PDE3A; in the concentrations tested): did not display any detectable effects
CCCCn1c(=O)[nH]c2nc(-c3ccc(S(=O)(=O)N4CCN(c5ccc(Cl)cc5)CC4)cc3)[nH]c2c1=O [PSB-23066, 1-butyl-8-(4-((4-(4-chlorophenyl)piperazin-1-yl)sulfonyl)phenyl)-1H-purine-2,6(3H,7H)-dione]	–	45.8	> 1000	–	> 1000	> 1000	0.401 ± 0.136	–	did not affect platelet aggregation	–
COc1ccccc1OCCNCC(O)COc1cccc2[nH]c3ccccc3c12 (stereo not shown) [Carvedilol, carvedilol, reference compound]	–	–	–	–	–	–	–	–	–	EC50 ([5]; carvedilol tested at 10–3000 μM, Figure 8, read-out: EC50 antioxidant action (lipid peroxidation)): 68.8 µM
CCn1c(=O)c2c(nc(NCc3c(Cl)ccc(OC)c3F)n2C)n(C)c1=O [MZ-1497, 8-((6-chloro-2-fluoro-3-methoxybenzyl)amino)-1-ethyl-3,7-dimethyl-purine-2,6-dione]	–	> 100	68.5 ± 15.5	–	> 1000	> 1000	> 1000	–	did not affect platelet aggregation	–
C#CCn1c(=O)c2c(nc(OCc3ccccc3Br)n2C)n(C)c1=O [TB-42]	–	64.5	59 ± 10.2	–	357 ± 49	–	> 1000	58.6 ± 35.6	–	Reduction of collagen-induced platelet aggregation [2]: 56.8%; IC50 ([2]; Platelet): 69.3 ± 0.7 µM
CC(C)Cn1c(=O)n(C)c(=O)c2[nH]cnc21 [IBMX, 1-methyl-3-isobutylxanthine, reference compound]	–	–	–	–	–	–	–	18.5 ± 7.3	–	IC50 (human recombinant PDE2A [6]): 9.22 µM; IC50 [2]: 98.8 ± 29.8 µM; IC50 ([2]; Rattus norvegicus, Platelet): ~100 µM; IC50 (human recombinant PDE5A [7]): 45.1 µM
O=C1CCc2cc(OCCCCc3nnnn3C3CCCCC3)ccc2N1 [Cilostazol, cilostazol, reference compound]	–	–	–	54.5	–	–	–	–	–	–
CCCCCC[C@@H]([C@@H](C)O)n1cnc2c(N)ncnc21 (racemic) [EHNA, erythro-9-(2-hydroxy-3-nonyl)adenine, reference compound]	8.22	–	–	–	–	–	–	–	–	–
CC1CCC(N2CCCn3c2nc2c3c(=O)n(C)c(=O)n2C)CC1 (stereo not shown) [KD-64, 1,3-dimethyl-9-(4-methylcyclohexyl)-pyrimido [2,1-f] purine-2,4-dione]	27	> 100	240	10300	> 1000	> 1000	> 1000	–	did not affect platelet aggregation	–
3,7-dimethyl-8-(3-phenylpropoxy)-1-(prop-2-yn-1-yl)--purine-2,6-dione [TB-46]	9.85	68.6	19.1 ± 2.3	580	158 ± 12	> 1000	472 ± 174	–	did not affect platelet aggregation	Antioxidant activity at a concentration 10 times lower (in words) ([5]; concentration 10 times lower than 1000 µM): practically disappeared
